# Laboratory results published in patent US20250057913A1, “USE OF SOMATOSTATIN AGONIST IN THE TREATMENT OF SSTR3 EXPRESSING TUMORS” (ITALFARMACO SPA, priority 2021, published 2025).
# How the values were obtained:
# [1] = tested on: primary cultures of rat anterior pituitary cells; test: Inhibition of GHRH-stimulated GH release in vitro; type: cell-based; conditions: rat anterior pituitary primary cell cultures
# Text: FIG. 4. Inhibition of GHRH-stimulated GH release in vitro using primary cultures of rat anterior pituitary cells.
# Results are expressed as mean values±SD of 3 experiments.
# [2] = tested on: IGF1 levels; test: IGF1 levels in rats; type: in vivo, rat
# [3] = target: T1, SSTR2 (Homo sapiens, UniProt P30874); test: SSTR2 internalization in transfected HEK293 cells; type: cell-based; design: expressed in transfected cells
# Text: (§1) HEK293 cells transfected with human SSTRs, and U20S cells transfected with human GFP-tagged receptors (SSTR2-tGFP, SSTR3-tGFP, SSTR5-tGFP).
# [4] = target: T1, SSTR2; test: SSTR2 phosphorylation in HEK293 transfected cells (phosphosite-specific antibodies); type: cell-based; design: expressed in transfected cells; conditions: 10 or 1 μM, 10 min at 37° C.
# Description: (A) Schematic representation of the human SSTR2 receptor indicating all potential phosphate acceptor sites within the carboxyl-terminal tail. Epitopes of the phosphosite-specific antibodies are marked (-P). […] The levels of phosphorylated SSTR2 receptor were then determined using the phosphosite-specific anti-pS341/pS343, pT353/T354, pT356/T359 antibodies. […] Blots shown are representative of three independent experiments. The positions of molecular mass markers are indicated on the left (in kDa).
# [5] = target: SSTR2-tGFP (Homo sapiens, UniProt P30874); test: Internalization of SSTR2 in U2OS transfected cells; type: cell-based; design: expressed in transfected cells; host or cells: U2OS
# Text: as §1
# [6] = target: SSTR5 (Homo sapiens, UniProt P35346); test: SSTR5 internalization in transfected HEK293 cells; type: cell-based; design: expressed in transfected cells; host or cells: HEK293 co-expressing GIRK2-GFP
# Text: HEK293 cells transfected with human SSTRs, and U20S cells transfected with human GFP-tagged receptors (SSTR2-tGFP, SSTR3-tGFP, SSTR5-tGFP). SST14 and SST28 were included as reference compounds in the first and second experiments, respectively.
# Sequence of SSTR2-tGFP (P30874 whole entry): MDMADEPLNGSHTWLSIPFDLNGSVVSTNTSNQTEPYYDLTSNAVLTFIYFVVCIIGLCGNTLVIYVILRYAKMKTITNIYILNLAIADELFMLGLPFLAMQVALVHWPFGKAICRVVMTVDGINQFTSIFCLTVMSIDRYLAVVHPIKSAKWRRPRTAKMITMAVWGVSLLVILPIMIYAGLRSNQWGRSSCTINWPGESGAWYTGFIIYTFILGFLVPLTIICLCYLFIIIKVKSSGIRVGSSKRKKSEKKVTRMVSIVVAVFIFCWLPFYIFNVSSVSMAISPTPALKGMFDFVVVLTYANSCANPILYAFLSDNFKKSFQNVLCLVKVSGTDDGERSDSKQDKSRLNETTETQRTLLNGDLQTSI
# T1 sequence (P30874 whole entry): as above
# Sequence of SSTR5 (P35346 whole entry): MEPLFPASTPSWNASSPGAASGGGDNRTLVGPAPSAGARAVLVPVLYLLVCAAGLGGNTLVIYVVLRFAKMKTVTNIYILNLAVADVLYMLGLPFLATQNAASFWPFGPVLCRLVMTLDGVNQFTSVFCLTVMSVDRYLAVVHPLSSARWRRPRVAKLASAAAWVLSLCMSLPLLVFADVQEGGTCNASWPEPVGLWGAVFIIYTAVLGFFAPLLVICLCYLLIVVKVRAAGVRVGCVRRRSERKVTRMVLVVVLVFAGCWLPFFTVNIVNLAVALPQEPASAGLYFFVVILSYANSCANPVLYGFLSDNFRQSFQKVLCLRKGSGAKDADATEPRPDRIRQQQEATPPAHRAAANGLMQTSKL
smiles,measurement,setting,value
"COc1cc2cccc(OC)c2cc1C[C@H]1NC(=O)[C@H](Cc2ccc(O)cc2)NC(=O)[C@@H]2C[C@@H](OC(=O)NCCN)CN2C(=O)[C@H](Cc2ccccc2)NC(=O)[C@H](Cc2ccc(OCc3ccccc3)cc2)NC(=O)[C@H](CCCCN)NC1=O [ITF2984, (3S,6R,9S,12S,15S,19R,20aS)-9-(4-aminobutyl)-15-benzyl-12-(4-(benzyloxy)benzyl)-6-((3,8-dimethoxynaphthalen-2-yl)methyl)-3-(4-hydroxybenzyl)-1,4,7,10,13,16-hexaoxoicosahydropyrrolo[1,2-a][1,4,7,10,13,16]hexaazacyclooctadecin-19-yl (2-aminoethyl)carbamate]",inhibition of GH release,[1],potently inhibited GH release
same,IGF1 levels,[2],decreased IGF1 levels
same,internalization of SSTR2,[3],only a partial internalization
same,"phosphorylation of SSTR2 (pS341/pS343, pT353/T354, pT356/T359)",[4],selective phosphorylation of S341/S343
same,"Mean of internalized fluorescence, SSTR2",[5]; 1 μM,37.3 AU
same,"Mean of internalized fluorescence, SSTR2",[5]; 10 μM,35.9 AU
same,internalization of SSTR5,[6],only a partial internalization
